Results reported in patent US20240246908A1 (ORION CORPORATION, priority 2021, published 2024).
pIC50: −log10 of the molar value.

These molecules were tested on YAP-TEAD (assay: TEAD inhibition, Hippo Pathway TEAD Reporter MCF-7 luciferase assay). Details: Homo sapiens, MCF7, 24 h, Hippo Pathway TEAD Reporter MCF-7 cells, luciferase activity after 24 h; read-out: IC50 of the test compounds on YAP-TEAD inhibition (Group).
Type: cell-based
Procedure, shortened: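 MCF-7 cells carrying a TEAD-responsive firefly luciferase reporter, with nuclear YAP1 driving constitutive expression, were treated the day after plating with compounds (11 concentrations, 4 replicates; 0.1% DMSO control). After 24 h, luciferase was read by ONE-Glo luminescence and IC50 determined.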
For `COc1ccc(Oc2cc(C(F)(F)F)ccn2)cc1NC(=O)C1CCNC(=O)C1` (centres unmarked) [Compound 327, N-(2-methoxy-5-((4-(trifluoromethyl)pyridin-2-yl)oxy)phenyl)-2-oxopiperidine-4-carboxamide], the pIC50 was 5.70 to 6.52. `CN1C(=O)CCC1C(=O)Nc1cc(Oc2ccc(OC(F)(F)F)cc2)ccc1F` (centres unmarked) [Compound 328, N-(2-Fluoro-5-(4-(trifluoromethoxy)phenoxy)phenyl)-1-methyl-S-oxopyrrolidine-2-carboxamide] gave a pIC50 of 6.52 to 7.30. `CN1C(=O)CCC1C(=O)Nc1cc(Oc2ccc(OC(F)(F)F)cc2)ccc1Cl` (centres unmarked) [Compound 329, N-(2-Chloro-5-(4-(trifluoromethoxy)phenoxy)phenyl)-1-methyl-5-oxo-pyrrolidine-2-carboxamide] gave a pIC50 of 5.70 to 6.52. `CN1C(=O)CCC1C(=O)Nc1cc(Oc2ccc(C(F)(F)F)cc2)ccc1C(N)=O` (centres unmarked) [Compound 330, N-(2-Carbamoyl-5-(4-(trifluoromethyl)phenoxy)phenyl)-1-methyl-5-oxopyrrolidine-2-carboxamide] showed a pIC50 of 5.70 to 6.52. `COCC(=O)N1C(=O)CCC1C(=O)Nc1cc(Oc2cc(C(F)(F)F)ccn2)ccc1OC` (centres unmarked) [Compound 331, N-(2-Methoxy-5-((4-(trifluoromethyl)-pyridin-2-yl)oxy)phenyl)-1-(2-methoxyacetyl)-5-oxopyrrolidine-2-carboxamide] was tested, and the pIC50 was 6.52 to 7.30. `COc1ccc(Oc2ccc(C(F)(F)F)cc2)cc1NC(=O)[C@@H]1CN(C)C(=O)N1` [Compound 332, (S)—N-(2-Methoxy-5-(4-(trifluoromethyl)phenoxy)phenyl)-1-methyl-2-oxo-imidazolidine-4-carboxamide] showed a pIC50 of 5.70 to 6.52. Work on `COCC(=O)N1C(=O)CC[C@H]1C(=O)Nc1cc(Oc2ccc(C(F)(F)F)cc2)ccc1OC` [Compound 333, (S)—N-(2-Methoxy-5-(4-(trifluoromethyl)phenoxy)phenyl)-1-(2-methoxyacetyl)-5-oxopyrrolidine-2-carboxamide] yielded a pIC50 of 5.70 to 6.52. For `COCC(=O)N1C(=O)CCC1C(=O)Nc1cc(Oc2ncc(C(F)(F)F)cc2F)ccc1OC` (centres unmarked) [Compound 334, N-(5-((3-Fluoro-5-(trifluoromethyl)pyridin-2-yl)oxy)-2-methoxyphenyl)-1-(2-methoxyacetyl)-5-oxopyrrolidine-2-carboxamide], the pIC50 was 6.52 to 7.30. `COc1ccc(Oc2ccc(C(F)(F)F)cc2)cc1NC(=O)C1CNC(=O)C1` (centres unmarked) [Compound 335, N-(2-Methoxy-5-(4-(trifluoromethyl)phenoxy)phenyl)-5-oxopyrrolidine-3-carboxamide] was tested, and the pIC50 was > 7.30. `COCC(=O)N1CCC[C@H]1C(=O)Nc1cc(Oc2ccc(C(F)(F)F)cc2)ccc1OC` [Compound 336, (S)—N-(2-Methoxy-5-(4-(trifluoromethyl)phenoxy)phenyl)-1-(2-methoxyacetyl)-pyrrolidine-2-carboxamide] was tested, and the pIC50 was 6.52 to 7.30. `COc1ccc(Oc2ccc(C(F)(F)F)cc2)cc1NC(=O)[C@@H]1CCCN1CC(N)=O` [Compound 337, (S)-1-(2-Amino-2-oxoethyl)-N-(2-methoxy-5-(4-(trifluoromethyl)phenoxy)-phenyl)pyrrolidine-2-carboxamide] showed a pIC50 of 6.52 to 7.30. With `COc1ccc(Oc2ccc(Cl)c(F)c2)cc1NC(=O)[C@@H]1CNC(=O)N1C` [Compound 338, (S)—N-(5-(4-Chloro-3-fluorophenoxy)-2-methoxyphenyl)-3-methyl-2-oxo-imidazolidine-4-carboxamide] the pIC50 was > 7.30. `COc1ccc(Oc2ncc(C(F)(F)F)cc2F)cc1NC(=O)[C@@H]1CNC(=O)N1C` [Compound 339, (S)—N-(5-((3-Fluoro-5-(trifluoromethyl)pyridin-2-yl)oxy)-2-methoxyphenyl)-3-methyl-2-oxoimidazolidine-4-carboxamide] was tested, and the pIC50 was > 7.30. In the case of `COc1ccc(Oc2ccc(C(F)F)cc2)cc1NC(=O)[C@@H]1CNC(=O)N1C` [Compound 340, (S)—N-(5-(4-(Difluoromethyl)phenoxy)-2-methoxyphenyl)-3-methyl-2-oxo-imidazolidine-4-carboxamide], the pIC50 was > 7.30. Work on `COc1ccc(Oc2ccc(C(F)(F)F)cc2)cc1NC(=O)CC1C(=O)N(C)C(=O)N1C` (centres unmarked) [Compound 341, 2-(1,3-Dimethyl-2,5-dioxoimidazolidin-4-yl)-N-(2-methoxy-5-(4-(trifluoro-methyl)phenoxy)phenyl)acetamide] yielded a pIC50 of 5.70 to 6.52. Molecule `COc1ccc(Oc2ccc(C(F)(F)F)cc2)cc1NC(=O)[C@@H]1CN(C)C(=O)N1C(C)=O` [Compound 342, (S)-3-Acetyl-N-(2-methoxy-5-(4-(trifluoromethyl)phenoxy)phenyl)-1-methyl-2-oxoimidazolidine-4-carboxamide] has a pIC50 of 6.52 to 7.30. In the case of `COc1ccc(Oc2ncc(C(F)(F)F)cc2F)cc1NC(=O)[C@@H]1CN(C)C(=O)N1C(C)=O` [Compound 343, (S)-3-Acetyl-N-(5-((3-fluoro-5-(trifluoromethyl)pyridin-2-yl)oxy)-2-methoxy-phenyl)-1-methyl-2-oxoimidazolidine-4-carboxamide], the pIC50 was 5.70 to 6.52. `COc1ccc(Oc2ccc(C(F)(F)F)cn2)cc1NC(=O)C1CNC(=O)C1` (centres unmarked) [Compound 344, N-(2-Methoxy-5-((5-(trifluoromethyl)pyridin-2-yl)oxy)phenyl)-5-oxopyrrolidine-3-carboxamide carboxamide] was tested, and the pIC50 was 5.70 to 6.52. In the case of `COc1ccc(Oc2ncc(C(F)(F)F)cc2Cl)cc1NC(=O)[C@@H]1CNC(=O)N1C` [Compound 345, (S)—N-(5-((3-Chloro-5-(trifluoromethyl)pyridin-2-yl)oxy)-2-methoxyphenyl)-3-methyl-2-oxoimidazolidine-4-carboxamide], the pIC50 was > 7.30. `COc1ccc(Oc2ccc(C(F)(F)F)cn2)cc1NC(=O)[C@@H]1CN(C)C(=O)N1C` [Compound 346, (S)—N-(2-Methoxy-5-((5-(trifluoromethyl)pyridin-2-yl)oxy)phenyl)-1,3-dimethyl-2-oxoimidazolidine-4-carboxamide] was tested, and the pIC50 was 6.52 to 7.30. In the case of `COCC(=O)N1CCC[C@@H]1C(=O)Nc1cc(Oc2ccc(C(F)(F)F)cc2)ccc1OC` [Compound 347, (R)—N-(2-Methoxy-5-(4-(trifluoromethyl)phenoxy)phenyl)-1-(2-methoxyacetyl)-pyrrolidine-2-carboxamide], the pIC50 was 5.70 to 6.52. With `COc1ccc(Oc2cccc(Cl)c2)cc1NC(=O)[C@@H]1CNC(=O)N1C` [Compound 348, (S)—N-(5-(3-Chlorophenoxy)-2-methoxyphenyl)-3-methyl-2-oxoimidazolidine-4-carboxamide] the pIC50 was > 7.30. In the case of `COc1ccc(Oc2ccc(C(F)(F)F)cc2)cc1NC(=O)C1CC(=O)N(C)C1` (centres unmarked) [Compound 349, N-(2-Methoxy-5-(4-(trifluoromethyl)phenoxy)phenyl)-1-methyl-5-oxo-pyrrolidine-3-carboxamide], the pIC50 was > 7.30. `COc1ccc(Oc2ccc(C(F)(F)F)cc2Cl)cc1NC(=O)C1CCC(=O)N1` (centres unmarked) [Compound 350, N-(5-(2-Chloro-4-(trifluoromethyl)phenoxy)-2-methoxyphenyl)-5-oxopyrrolidi-ne-2-carboxamide] was tested, and the pIC50 was 6.52 to 7.30. `CN1C(=O)NC[C@H]1C(=O)Nc1cc(Cl)cc(Oc2ccc(C(F)(F)F)cn2)c1` [Compound 351, (S)—N-(3-Chloro-5-((5-(trifluoromethyl)pyridin-2-yl)oxy)phenyl)-3-methyl-2-oxoimidazolidine-4-carboxamide] was tested, and the pIC50 was > 7.30. For `CN1C(=O)CCC1C(=O)Nc1cc(Cl)cc(Oc2ccc(C(F)(F)F)cn2)c1` (centres unmarked) [Compound 352, N-(3-Chloro-5-((5-(trifluoromethyl)pyridin-2-yl)oxy)phenyl)-1-methyl-5-oxopyrrolidine-2-carboxamide], the pIC50 was > 7.30.
